60 compounds from PubChem BioAssay AID2165 (The Scripps Research Institute Molecular Screening Center, 2009) can be followed below.

Calls of active or inactive are those of the source. No stated cut-off is given here; in the data, active means IC50 below about 9 µM; inactive means the rest.

The experiment deals with Tyrosine-protein kinase JAK2 (Homo sapiens) (UniProt O60674). Description: JAK2V617F kinase, IRF1 reporter and Ba/F3 cytotoxicity panel, late-stage follow-up, HEL and Ba/F3 cells (AID 2165).
Chain of Tyrosine-protein kinase JAK2 (Homo sapiens) (O60674 whole entry, looked up, change not shown): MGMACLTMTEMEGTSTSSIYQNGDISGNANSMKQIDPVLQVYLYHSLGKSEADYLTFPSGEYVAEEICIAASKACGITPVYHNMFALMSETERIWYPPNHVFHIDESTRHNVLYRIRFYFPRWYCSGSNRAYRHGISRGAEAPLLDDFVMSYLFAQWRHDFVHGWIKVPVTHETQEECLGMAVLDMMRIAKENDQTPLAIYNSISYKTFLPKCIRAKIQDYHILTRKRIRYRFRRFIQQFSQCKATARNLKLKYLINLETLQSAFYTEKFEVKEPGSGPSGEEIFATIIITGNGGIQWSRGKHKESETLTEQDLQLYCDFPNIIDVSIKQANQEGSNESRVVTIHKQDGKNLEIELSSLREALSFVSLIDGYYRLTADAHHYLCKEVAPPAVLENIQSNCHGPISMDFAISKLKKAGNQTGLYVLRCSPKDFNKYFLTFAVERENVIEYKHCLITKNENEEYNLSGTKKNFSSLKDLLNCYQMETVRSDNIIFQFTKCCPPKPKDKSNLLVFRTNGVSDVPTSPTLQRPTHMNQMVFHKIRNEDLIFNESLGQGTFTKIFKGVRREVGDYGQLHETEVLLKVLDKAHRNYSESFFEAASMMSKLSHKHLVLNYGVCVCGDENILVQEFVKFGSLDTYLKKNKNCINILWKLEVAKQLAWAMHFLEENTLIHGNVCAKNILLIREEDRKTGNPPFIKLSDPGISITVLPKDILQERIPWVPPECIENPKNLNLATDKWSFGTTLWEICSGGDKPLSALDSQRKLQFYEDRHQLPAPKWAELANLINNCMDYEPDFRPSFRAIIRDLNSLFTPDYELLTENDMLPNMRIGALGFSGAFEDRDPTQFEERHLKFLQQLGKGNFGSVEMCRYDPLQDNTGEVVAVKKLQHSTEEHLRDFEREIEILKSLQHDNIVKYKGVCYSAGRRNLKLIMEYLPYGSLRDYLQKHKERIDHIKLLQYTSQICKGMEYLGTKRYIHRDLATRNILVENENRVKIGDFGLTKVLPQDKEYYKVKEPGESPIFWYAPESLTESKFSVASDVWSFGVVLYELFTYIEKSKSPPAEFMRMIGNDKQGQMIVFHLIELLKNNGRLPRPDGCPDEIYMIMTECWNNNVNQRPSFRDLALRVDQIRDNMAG

In the case of `CNC(=O)c1nnsc1S(=O)c1ccc(Cl)cc1` (configuration not stated), the IC50 (usually the concentration that inhibits the measured activity by half) (Ba/F3, irf1 reporter) is 0.199 µM and the IC50 (HEL, irf1 reporter) was 12.1 µM.

As for `CCN(CC)S(=O)(=O)c1cccc(-n2c(O)c(C=Nc3ccccc3C(=O)O)c3ccccc3c2=O)c1`, the IC50 by setting is: (Ba/F3, irf1 reporter) > 40 µM (inactive); (HEL, irf1 reporter) > 40 µM (inactive).

For `CC1CCCC(NC(=O)NC(=O)CCl)C1C` (configuration not stated), the IC50 reads like this: (Ba/F3, irf1 reporter) 3.19 µM; (HEL, irf1 reporter) 31.1 µM.

As for `COc1ccc([N+](=O)[O-])c(S(=O)(=O)c2ccc(Cl)cc2)n1`, the IC50 runs as follows: (Ba/F3, irf1 reporter) 0.395 µM; (HEL, irf1 reporter) 10.4 µM.

Consider `O=C(O)c1[nH]c(=O)[nH]c(=O)c1F`, for which the IC50 is > 40 µM (inactive) (Ba/F3, irf1 reporter) and > 40 µM (inactive) (HEL, irf1 reporter).

On to `Cc1[nH]c(=O)c(C(=O)C=Cc2ccc(Br)cc2)c2c1CCCC2`, for which the IC50 is 0.98 µM (Ba/F3, irf1 reporter); 1.03 µM (HEL, irf1 reporter); 3.64 µM (JAK2V617F).

For the compound `N#C/C(=C\c1ccc(O)c(O)c1)C(=O)NCCCCc1ccccc1`, the IC50 runs as follows: (Ba/F3, irf1 reporter) 0.25 µM; (HEL, irf1 reporter) 3.31 µM; (JAK2V617F) 0.76 µM.

Consider `Cc1ccc(Cn2ccsc2=NC(=O)CCl)cc1`, for which the IC50 reads like this: (Ba/F3, irf1 reporter) 6.74 µM; (HEL, irf1 reporter) 3.11 µM.

As for `Cc1ccc(O)c(NC(=O)COc2ccc(Cl)cc2)c1`, the IC50 (JAK2V617F) was 1.51 µM.

As to `Cc1oc2c(O)c(O)ccc2c(=O)c1-c1cnn(-c2ccccc2)c1`, the IC50 by setting is: (Ba/F3, irf1 reporter) 12.8 µM; (HEL, irf1 reporter) 8.52 µM.

With `Cc1cccc(OCC(=O)Nc2cc(C)c(C)cc2O)c1`, the IC50 (JAK2V617F) was > 40 µM (inactive).

For `Cc1cccc(CS(=O)(=O)c2nnc([C@H](Cc3ccccc3)NC(=O)OC(C)(C)C)o2)c1`, the half-maximal inhibitory concentration (IC50) runs as follows: (Ba/F3, irf1 reporter) 1.39 µM; (HEL, irf1 reporter) 11.6 µM.

Take `Cc1[nH]c(=O)c(C(=O)C=Cc2ccccc2Cl)c2c1CCCC2`: the IC50 (Ba/F3, irf1 reporter) was 0.214 µM; the IC50 (HEL, irf1 reporter) is 0.53 µM; the IC50 (JAK2V617F) was 0.13 µM.

`O=C(OCn1ncc(Cl)c(Cl)c1=O)c1ccccc1Cl`: the IC50 reads like this: (Ba/F3, irf1 reporter) 4.03 µM; (HEL, irf1 reporter) 4.45 µM.

`O=C1C=C(Nc2ccc(O)cc2)C(=O)c2ccccc21`: the IC50 runs as follows: (Ba/F3, irf1 reporter) 7.94 µM; (HEL, irf1 reporter) 34.7 µM.

For `Cc1ccc(Nc2nc(N)nc(CCl)n2)cc1`, the IC50 is 12.7 µM (Ba/F3, irf1 reporter) and 5.6 µM (HEL, irf1 reporter).

As to `COCCOc1cc2nc[nH]c(=O)c2cc1OCCOC`, the IC50 (HEL, irf1 reporter) is > 40 µM (inactive) and the IC50 (JAK2V617F) was > 40 µM (inactive).

As for `CC1CCCN(CCCNC(=O)c2cc3c(Cl)nc4ccccc4c3s2)C1` (configuration not stated), the IC50 is, setting by setting: (Ba/F3, irf1 reporter) 11.6 µM; (HEL, irf1 reporter) > 40 µM (inactive).

For `Cc1nc2c(=O)n(C)c(=O)n(C)c2nc1Cl`, the IC50 is 1.97 µM (Ba/F3, irf1 reporter) and 15.7 µM (HEL, irf1 reporter).

Take `COc1cccc(Nc2ncnc3cc(OC)c(OC)cc23)c1`: the IC50 is, setting by setting: (HEL, irf1 reporter) 3.54 µM; (JAK2V617F) > 40 µM (inactive).

In the case of `COc1ccc(-c2cnc3c(c2)CCC3(C#N)C#N)cc1`, the IC50 by setting is: (Ba/F3, irf1 reporter) 14.4 µM; (HEL, irf1 reporter) 10.4 µM.

Turning to `O=C(NCCc1cccnc1)C1CCC(=O)N(CCc2cccc(F)c2)C1` (configuration not stated), the IC50 (HEL, irf1 reporter) is > 40 µM (inactive) and the IC50 (JAK2V617F) is > 40 µM (inactive).

`COc1cc2ncnc(NC3CCCCC3)c2cc1OC`: the IC50 runs as follows: (HEL, irf1 reporter) 5.22 µM; (JAK2V617F) > 40 µM (inactive).

In the case of `COc1cc2ncnc(Nc3ccccc3)c2cc1OC`, the IC50 runs as follows: (HEL, irf1 reporter) 5.92 µM; (JAK2V617F) > 40 µM (inactive).

In the case of `Cc1nnc(NC(=O)COc2ccccc2)s1`, the IC50 reads like this: (HEL, irf1 reporter) > 40 µM (inactive); (JAK2V617F) > 40 µM (inactive).

In the case of `N#CC(=Cc1ccc(O)c(O)c1)C(=S)NCc1ccccc1`, the half-inhibitory concentration (IC50) (Ba/F3, irf1 reporter) was 0.62 µM; the IC50 (HEL, irf1 reporter) is > 40 µM (inactive); the IC50 (JAK2V617F) was 1.92 µM.

With `Cc1c(Cc2ccccc2)c(=O)oc2c(O)c(O)ccc12`, the IC50 was 6.58 µM (Ba/F3, irf1 reporter) and 31.9 µM (HEL, irf1 reporter).

In the case of `Cc1ccc(C=CC(=O)c2c3c(c(C)[nH]c2=O)CCCC3)cc1`, the IC50 is, setting by setting: (Ba/F3, irf1 reporter) 6.04 µM; (HEL, irf1 reporter) 23.9 µM; (JAK2V617F) 3.38 µM.

Regarding `Cc1cc2ncc(-c3ccc(O)c(O)c3)nc2cc1C`, the 50% inhibitory concentration (IC50) was 0.104 µM (Ba/F3, irf1 reporter); 3.19 µM (HEL, irf1 reporter); 0.84 µM (JAK2V617F).

Consider `Cc1nn(Cc2ccc(Cl)cc2Cl)c(C)c1NC(=O)CCl`, for which the 50% inhibitory concentration (IC50) is, setting by setting: (Ba/F3, irf1 reporter) 8.77 µM; (HEL, irf1 reporter) 8.61 µM.

For the compound `O=C(NC1C=CS(=O)(=O)C1)c1sc2ccccc2c1Cl` (configuration not stated), the IC50 is, setting by setting: (Ba/F3, irf1 reporter) 8.98 µM; (HEL, irf1 reporter) > 40 µM (inactive).

Regarding `CC(C)(C)OC(=O)N[C@@H](Cc1ccccc1)c1nnc(S(=O)(=O)Cc2cccc(F)c2)o1`, the IC50 is 0.904 µM (Ba/F3, irf1 reporter) and 26.3 µM (HEL, irf1 reporter).

Take `COc1ccc(C)cc1NC(=O)Nc1ccc(Br)cn1`: the IC50 was > 40 µM (inactive) (HEL, irf1 reporter) and > 40 µM (inactive) (JAK2V617F).

With `CCOc1cc2ncnc(Nc3cccc(Br)c3)c2cc1OCC`, the IC50 is, setting by setting: (Ba/F3, irf1 reporter) 2.36 µM; (HEL, irf1 reporter) 2.59 µM; (JAK2V617F) 7.12 µM.

Take `O=C(CCl)N=c1sccn1Cc1cccc2ccccc12`: the half-maximal inhibitory concentration (IC50) is, setting by setting: (Ba/F3, irf1 reporter) 7.24 µM; (HEL, irf1 reporter) 0.202 µM.

As for `COc1cccc(/C=N/NC(=O)c2[nH]c(C)c(C(=O)N/N=C/c3cccc(OC)c3O)c2C)c1O`, the IC50 (Ba/F3, irf1 reporter) is 19.8 µM and the half-maximal inhibitory concentration (IC50) (HEL, irf1 reporter) is 9.67 µM.

In the case of `COc1ccc(Nc2nc(N)nc(CCl)n2)cc1`, the IC50 (Ba/F3, irf1 reporter) is > 40 µM (inactive) and the IC50 (HEL, irf1 reporter) was 3.96 µM.

For the compound `O=S(=O)(c1cccs1)N1CCN(c2ccc(O)cc2)CC1`, the IC50 (Ba/F3, irf1 reporter) is 7.02 µM and the IC50 (HEL, irf1 reporter) was 20.9 µM.

As for `COc1ccccc1OCC(=O)Nc1cc(C)ccc1O`, the IC50 (JAK2V617F) was 0.0392 µM.

For `Cc1ccc(O)c(NC(=O)COc2ccc(Br)cc2)c1`, where the note is “JAK2V617F”, the 50% inhibitory concentration (IC50) was 0.0327 µM.

For `CC1CCN(CCCNC(=O)c2cc3c(Cl)nc4ccccc4c3s2)CC1`, the IC50 by setting is: (Ba/F3, irf1 reporter) 9.98 µM; (HEL, irf1 reporter) > 40 µM (inactive).

For the compound `COC1(OC)C(/C=C/c2ccc(Cl)cc2)C(C#N)(C#N)C1(OC)OC` (configuration not stated), the IC50 is 1.33 µM (Ba/F3, irf1 reporter) and 6.57 µM (HEL, irf1 reporter).

In the case of `O=S(=O)(c1cnc(Cl)c(Br)c1)N1CCc2ccccc21`, the IC50 was 6.61 µM (Ba/F3, irf1 reporter) and > 40 µM (inactive) (HEL, irf1 reporter).

For the compound `Cc1cccc(NC(=O)c2ccc([N+](=O)[O-])o2)c1`, the IC50 was 6.3 µM (Ba/F3, irf1 reporter) and 10.5 µM (HEL, irf1 reporter).

Regarding `O=C(/C=C/c1ccc(O)c(O)c1)c1ccc(S(=O)(=O)N2CCCCCC2)cc1`, the IC50 is 2.33 µM (Ba/F3, irf1 reporter) and > 40 µM (inactive) (HEL, irf1 reporter).

Regarding `Cc1ccc(O)c(NC(=O)COc2ccc(C)c(C)c2)c1`, the IC50 (JAK2V617F) is > 40 µM (inactive).

As for `CCCCn1c(=N)n(CC(=O)c2ccc(Br)s2)c2ccccc21`, the IC50 (Ba/F3, irf1 reporter) was 3.61 µM and the IC50 (HEL, irf1 reporter) was 9.86 µM.

For the compound `COc1ccccc1C(C[N+](=O)[O-])c1c(N)n(C)c(=O)n(C)c1=O` (configuration not stated), the IC50 is 6.82 µM (Ba/F3, irf1 reporter) and 17 µM (HEL, irf1 reporter).

Consider `O=C(CCl)N=c1sccn1Cc1ccccc1Cl`, for which the IC50 runs as follows: (Ba/F3, irf1 reporter) 9.38 µM; (HEL, irf1 reporter) 1.62 µM.

Regarding `COc1cc2ncnc(Nc3cccc(C)c3)c2cc1OC`, the IC50 reads like this: (HEL, irf1 reporter) 7.18 µM; (JAK2V617F) > 40 µM (inactive).

With `Cc1nn2c(NCc3ccccn3)c3c(nc2c1-c1ccccc1)CCC3`, the IC50 runs as follows: (Ba/F3, irf1 reporter) 10.7 µM; (HEL, irf1 reporter) 9.49 µM.

Regarding `Cc1nc([N+](=O)[O-])c(Br)n1Cc1ccc(Cl)c(Cl)c1`, the IC50 reads like this: (Ba/F3, irf1 reporter) 2.62 µM; (HEL, irf1 reporter) 4.58 µM.

Turning to `Cc1ccc(O)c(NC(=O)COc2cccc3ccccc23)c1`, the IC50 (JAK2V617F) was 2.34 µM.

In the case of `Cc1ccccc1CS(=O)(=O)c1nnc([C@H](CC(C)C)NC(=O)OC(C)(C)C)o1`, the IC50 (Ba/F3, irf1 reporter) is 1.96 µM and the half-maximal inhibitory concentration (IC50) (HEL, irf1 reporter) is 12.1 µM.

Consider `c1ccc(CCNc2nc(-c3ccccn3)nc3ccccc23)cc1`, for which the IC50 was 5.49 µM (Ba/F3, irf1 reporter) and 2.88 µM (HEL, irf1 reporter).

On to `O=C(CCl)NC(=O)NC12CC3CC(CC(C3)C1)C2`, for which the concentration for half-maximal inhibition (IC50) reads like this: (Ba/F3, irf1 reporter) 3.56 µM; (HEL, irf1 reporter) 7.9 µM.

With `CCOc1ccc(Nc2nc(N)nc(CCl)n2)cc1`, the IC50 by setting is: (Ba/F3, irf1 reporter) 11.2 µM; (HEL, irf1 reporter) 0.452 µM.

As for `COc1ccc(C=CC(=O)c2c3c(c(C)[nH]c2=O)CCCC3)cc1`, the IC50 reads like this: (Ba/F3, irf1 reporter) > 40 µM (inactive); (HEL, irf1 reporter) > 40 µM (inactive); (JAK2V617F) 6.94 µM.

Turning to `O=C(Oc1cccc2c(O)cccc12)c1ccccc1`, the IC50 (Ba/F3, irf1 reporter) is 8.18 µM and the IC50 (HEL, irf1 reporter) is > 40 µM (inactive).

In the case of `COc1ccccc1N(C(=O)CCl)c1cn(C(C)=O)c2ccccc12`, the concentration for half-maximal inhibition (IC50) reads like this: (Ba/F3, irf1 reporter) 2.17 µM; (HEL, irf1 reporter) 9.3 µM.
